Assay results taken from patent US10231453B2, “5-substituted imidazole derivatives” (BAYER CROPSCIENCE AKTIENGESELLSCHAFT, priority 2015, dated 2019).
Read-outs that look alike come from different tables or passages of the source.

Columns and labels:
Septoria tritici [1] = assay: In vitro test for the calculation of the ED50-value with microorganisms, Example Q4: Septoria tritici; type: cell-based; settings: liquid culture, spore suspension, 4 to 7 days incubation, spectrometric measurement of mycelium growth
Phakopsora pachyrhizi = assay: In vivo preventive Phakopsora test (soybeans), Example I; settings: 168 h, 100 ppm of active ingredient, preventive spray, evaluated 7 days after inoculation, read-out: efficacy
Leptosphaeria nodorum [2] = assay: In vivo preventive Leptosphaeria nodorum test (wheat), Example N; settings: Parastagonospora nodorum, 192 h, 500 ppm of active ingredient, preventive spray, evaluated 8 days after inoculation, read-out: efficacy
Source text: After the spray coating has been dried, the plants are sprayed with a spore suspension of Leptosphaeria nodorum.

Venturia inaequalis = assay: In vivo preventive Venturia test (apples), Example J; settings: 240 h, read-out: efficacy
Experimental: After the spray coating has dried on, the plants are inoculated with an aqueous conidia suspension of the causal agent of apple scab (Venturia inaequalis) and then remain for 1 day in an incubation cabinet at approximately 20° C. and a relative atmospheric humidity of 100%.
The plants are then placed in a greenhouse at approximately 21° C. and a relative atmospheric humidity of approximately 90%.
The test is evaluated 10 days after the inoculation.

Leptosphaeria nodorum [3] = assay: In vitro test for the calculation of the ED50-value with microorganisms, Example Q4: Leptosphaeria nodorum; type: cell-based; settings: liquid culture, spore suspension, 4 to 7 days incubation, spectrometric measurement of mycelium growth
[4] = Measurement of LogP values by HPLC on reversed phase columns (EEC directive 79/831 Annex V.A8); type: physicochemical; settings: method [a]: LC-UV, acidic range, 0.1% formic acid in water and acetonitrile as eluent; Table 1
Experimental: Measurement of Log P values was performed as outlined above.

Pyricularia oryzae = assay: whole plant or invertebrate; type: in vivo; settings: 192 h, read-out: efficacy
Botrytis cinerea [5] = assay: In vivo preventive test on Botrytis cinerea (grey mould) on gherkin, Examples B, Q1 and R2; settings: for pest or weed control at 500 ppm / pest or weed control at 100 ppm: Botrytis cinerea; for pest or weed control at 100 ppm: Example Q1, rate of application 100 ppm
Pyrenophora teres = assay: In vivo preventive test on Pyrenophora teres (net blotch on barley), Examples D, Q2 and R4; settings: Pyrenophora teres, 336 h
Alternaria solani = assay: In vivo preventive Alternaria test (tomatoes), Example H; settings: 72 h, 100 ppm of active ingredient, preventive spray, evaluated 3 days after inoculation, read-out: efficacy
Botrytis cinerea [6] = assay: In vitro test for the calculation of the ED50-value with microorganisms, Example Q4: Botrytis cinerea; type: cell-based; settings: liquid culture, spore suspension, 4 to 7 days incubation, spectrometric measurement of mycelium growth
Puccinia recondita = assay: In vivo preventive test on Puccinia recondita (brown rust on wheat), Examples C and R3; settings: Puccinia recondita, 264 h, preventive spray, evaluated 11 days after inoculation
[7] = test system: Blumeria graminis fsp. hordei; assay: In vivo preventive Blumeria test (barley), Example K; settings: 168 h, 500 ppm of active ingredient, preventive spray, evaluated 7 days after inoculation, read-out: efficacy
Source text: After the spray coating has been dried, the plants are dusted with spores of Blumeria graminis fsp. hordei.

Sphaerotheca fuliginea = assay: In vivo preventive test on Sphaerotheca fuliginea (powdery mildew on cucurbits), Examples F and R6; settings: Podosphaera fuliginea, 360 h, preventive spray, evaluated 15 days after inoculation
Septoria tritici [8] = assay: In vivo preventive test on Septoria tritici (leaf spot on wheat), Examples E, Q3 and R5; settings: Zymoseptoria tritici, 576 h
Uromyces appendiculatus = assay: In vivo preventive test on Uromyces appendiculatus (bean rust), Examples G and R7; settings: 264 h, preventive spray, evaluated 11 days after inoculation
Alternaria brassicae = assay: In vivo preventive test on Alternaria brassicae (leaf spot on radish), Examples A and R1; settings: Alternaria brassicae, 144 h
Fusarium culmorum = assay: In vitro test for the calculation of the ED50-value with microorganisms, Example Q4: Fusarium culmorum; type: cell-based; settings: liquid culture, spore suspension, 4 to 7 days incubation, spectrometric measurement of mycelium growth
Experimental: • Solvent: Dimethyl sulfoxide • Culture medium: 14.6 g anhydrous D-glucose (VWR), 7.1 g Mycological Peptone (Oxoid), 1.4 g granulated Yeast Extract (Merck), QSP liter • Inoculum: Spore suspension
Fungicides were solubilized in DMSO and the solution used to prepare the required range of concentrations. The final concentration of DMSO used in the assay was ≤1%.
A spore suspension was prepared and diluted to the desired spore density.
Fungicides were evaluated for their ability to inhibit spore germination and mycelium growth in liquid culture assay. The compounds were added in the desired concentration to the culture medium with spores. After 4 to 7 days incubation, fungi-toxicity of compounds was determined by spectrometric measurement of mycelium growth. Inhibition of fungal growth was determined by comparing the absorbance values in wells containing the fungicides with the absorbance in control wells without fungicides.

[9] = 500 ppm of active ingredient, preventive spray, evaluated 4 to 5 days after inoculation, read-out: efficacy
[10] = Example Q1, rate of application 500 ppm, read-out: Efficacy in %
[11] = Example R2, rate of application 100 ppm
[12] = Example R2, rate of application 500 ppm
[13] = 500 ppm of active ingredient, preventive spray, evaluated 14 days after inoculation, read-out: efficacy
[14] = Example Q2, rate of application 100 ppm, read-out: Efficacy in %
[15] = Example Q2, rate of application 500 ppm, read-out: Efficacy in %
[16] = Example R4, rate of application 100 ppm, read-out: Efficacy in %
[17] = Example R4, rate of application 500 ppm, read-out: Efficacy in %
[18] = 500 ppm of active ingredient, wheat, read-out: efficacy
[19] = Example R3, wheat, read-out: Efficacy in %
[20] = Example R3, wheat, 500 ppm, read-out: Efficacy in %
[21] = 500 ppm of active ingredient, gherkin, read-out: efficacy
[22] = Example R6, gherkin, read-out: Efficacy in %
[23] = Example R6, gherkin, 500 ppm, read-out: Efficacy in %
[24] = 500 ppm of active ingredient, wheat, preventive spray, evaluated 24 days after inoculation, read-out: efficacy
[25] = Example Q3, rate of application 100 ppm, wheat, read-out: Efficacy in %
[26] = Example Q3, rate of application 500 ppm, wheat, read-out: Efficacy in %
[27] = Example R5, wheat, preventive spray, 100 ppm, evaluated 24 days after inoculation, read-out: Efficacy in %
[28] = Example R5, wheat, preventive spray, 500 ppm, evaluated 24 days after inoculation, read-out: Efficacy in %
[29] = 500 ppm of active ingredient, bean, read-out: efficacy
[30] = Example R7, bean, read-out: Efficacy in %
[31] = Example R7, bean, 500 ppm, read-out: Efficacy in %

SMILES | Septoria tritici ED50 value in ppm (Septoria tritici [1]) | pest or weed control at 100 ppm (Phakopsora pachyrhizi) | pest or weed control at 500 ppm (Leptosphaeria nodorum [2]) | pest or weed control at 100 ppm (Venturia inaequalis) | Leptosphaeria nodorum ED50 value in ppm (Leptosphaeria nodorum [3]) | chromatographic logP [4] | pest or weed control at 500 ppm (Pyricularia oryzae) | pest or weed control at 500 ppm (Botrytis cinerea [5]; [9]) | pest or weed control at 100 ppm (Botrytis cinerea [5]; read-out: Efficacy in %) | pest or weed control at 500 ppm (Botrytis cinerea [5]; [10]) | Efficacy in % (Botrytis cinerea [5]; [11]) | Efficacy in % (Botrytis cinerea [5]; [12]) | pest or weed control at 500 ppm (Pyrenophora teres; [13]) | pest or weed control at 100 ppm (Pyrenophora teres; [14]) | pest or weed control at 500 ppm (Pyrenophora teres; [15]) | pest or weed control at 100 ppm (Pyrenophora teres; [16]) | pest or weed control at 500 ppm (Pyrenophora teres; [17]) | pest or weed control at 100 ppm (Alternaria solani) | Botrytis cinerea ED50 value in ppm (Botrytis cinerea [6]) | pest or weed control at 500 ppm (Puccinia recondita; [18]) | other results
OC(Cc1ccc(Cl)cc1F)(Cn1cncc1Cl)C1(Cl)CC1 (stereo not shown) [Example I-27, 2-(1-chlorocyclopropyl)-1-(4-chloro-2-fluorophenyl)-3-(5-chloro-1H-imidazol-1-yl)propan-2-ol] | <0.006 ppm | 90 to 100% | 90 to 100% | 90 to 100% | <0.006 ppm | 2.48 | 90 to 100% | 90 to 100% | 99% | 100% | 99% | 100% | 90 to 100% | 94% | 98% | 94% | 98% | 90 to 100% | 0.02 ppm | 90 to 100% | pest or weed control at 100 ppm (Puccinia recondita; [19]): 89%; pest or weed control at 500 ppm (Puccinia recondita; [20]): 98%; pest or weed control at 500 ppm [7]: 90 to 100%; pest or weed control at 500 ppm (Sphaerotheca fuliginea; [21]): 90 to 100%; pest or weed control at 100 ppm (Sphaerotheca fuliginea; [22]): 100%; pest or weed control at 500 ppm (Sphaerotheca fuliginea; [23]): 100%; pest or weed control at 500 ppm (Septoria tritici [8]; [24]): 90 to 100%; pest or weed control at 100 ppm (Septoria tritici [8]; [25]): 81%; pest or weed control at 500 ppm (Septoria tritici [8]; [26]): 94%; pest or weed control at 100 ppm (Septoria tritici [8]; [27]): 94%; pest or weed control at 500 ppm (Septoria tritici [8]; [28]): 81%; pest or weed control at 500 ppm (Uromyces appendiculatus; [29]): 90 to 100%; pest or weed control at 100 ppm (Uromyces appendiculatus; [30]): 20%; pest or weed control at 500 ppm (Uromyces appendiculatus; [31]): 100%; pest or weed control at 500 ppm (Alternaria brassicae; 500 ppm of active ingredient, preventive spray, evaluated 6 days after inoculation, read-out: efficacy): 90 to 100%; pest or weed control at 100 ppm (Alternaria brassicae; Example R1, rate of application 100 ppm, read-out: Efficacy in %): 50%; pest or weed control at 500 ppm (Alternaria brassicae; Example R1, rate of application 500 ppm, read-out: Efficacy in %): 92%; Fusarium culmorum ED50 value in ppm (Fusarium culmorum): <0.006 ppm
OC(Cc1ccc(Cl)cc1F)(Cn1cncc1Br)C1(Cl)CC1 (stereo not shown) [Example I-30] | <0.006 ppm | 90 to 100% | 90 to 100% | 90 to 100% | 0.01 ppm | 2.55 | 90 to 100% | 90 to 100% | 100% | 100% | 100% | 100% | 90 to 100% | 91% | 94% | 81% | 94% | 90 to 100% | 0.08 ppm | 90 to 100% | pest or weed control at 100 ppm (Puccinia recondita; [19]): 88%; pest or weed control at 500 ppm (Puccinia recondita; [20]): 94%; pest or weed control at 500 ppm [7]: 90 to 100%; pest or weed control at 500 ppm (Sphaerotheca fuliginea; [21]): 90 to 100%; pest or weed control at 100 ppm (Sphaerotheca fuliginea; [22]): 100%; pest or weed control at 500 ppm (Sphaerotheca fuliginea; [23]): 100%; pest or weed control at 500 ppm (Septoria tritici [8]; [24]): 90 to 100%; pest or weed control at 100 ppm (Septoria tritici [8]; [25]): 94%; pest or weed control at 500 ppm (Septoria tritici [8]; [26]): 98%; pest or weed control at 100 ppm (Septoria tritici [8]; [27]): 94%; pest or weed control at 500 ppm (Septoria tritici [8]; [28]): 98%; pest or weed control at 500 ppm (Uromyces appendiculatus; [29]): 90 to 100%; pest or weed control at 100 ppm (Uromyces appendiculatus; [30]): 88%; pest or weed control at 500 ppm (Uromyces appendiculatus; [31]): 100%; Fusarium culmorum ED50 value in ppm (Fusarium culmorum): 0.01 ppm
